Data reported in patent US11896589B2, “Diazinyl amino acridines and medical uses thereof” (MyCural Therapeutics AB, priority 2018, dated 2024).

Assays:
MAX bHLHZip = molecular target: T1, MAX bHLHZip (Homo sapiens, UniProt P61244); assay: Assay 2A MST assay with MAX; type: binding; conditions: compound fixed at 3 μM, MAX titrated, highest concentration tested 15 μM
T1 construct: Recombinant MYC bHLHZip and MAX bHLHZip proteins were titrated
Experimental: FIG. 2: A) MST assay of Example 1 effect on MYC and MAX, respectively. Recombinant MYC bHLHZip and MAX bHLHZip proteins were titrated, respectively, in a fixed concentration (3 μM) of Example 1. Changes in fluorescence were measured and normalized to control (buffer). Data are shown as mean±standard deviation of 6-8 biological repeats. B) MST assay of MYC (reverse MST). A fixed concentration of 200 nM labeled MYC was mixed with different concentrations of Example 1 as indicated. Data are shown as mean±standard deviation of 5 biological repeats. C) MST assay of Example 2 effect on MYC. D) MST assay of MYC with a control compound (non-binder).
The MYC MST assay was performed as described above (Biological example 1—Assay 1A), except that the fluorescent molecule was either protein or Example 1. The example compound was kept at a fix concentration of 3 μM in PBS supplemented with 0.05% Tween-20, while MYCbHLHZip or MAX was titrated. The migration of example compound changed at MYC protein concentrations above 1 μM, but was unaffected with MAX up to highest concentration tested (15 μM) (FIG. 2A). In a reverse experiment, Example 1 was titrated in a fixed protein concentration in PBS supplemented with 0.05% Tween-20 and 1% DMSO as described above after labelling primary amines of the protein using the Protein labelling kit GREEN-NHS (NanoTemper) according to manufacturer's protocol. […]

[1] = molecular target: T2, MYC:MAX heterodimer (MYCbHLHZip over immobilized MAXbHLHZip) (Homo sapiens, UniProt P01106); assay: Assay 1B MYC:MAX SPR heterodimer formation assay; type: binding; conditions: 100 nM MYCbHLHZip pre-mixed with compound, 25° C.
T2 construct: MYC:MAX heterodimer formation assay based on recombinant proteins
Experimental: FIG. 1: A) Microscale thermophoresis (MST) of fluorescently labeled MAX in a MYC:MAX heterodimer formation assay based on recombinant proteins. MST of labeled MAXbHLHZip after titration of Example 1 pre-incubated with 1 μM MYCbHLHZip, or with 1 μM MAXbHLHZip. Fluorescence intensity of labeled MAXbHLHZip relative DMSO was plotted against Example 1 concentration. B) Surface plasmon resonance (SPR) of MYC:MAX heterodimer formation assay. MAXbHLHZip was immobilized by an amino coupling procedure to a CM5 sensor chip. MYCbHLHZip pre-incubated with or without compound (as indicated) was injected over MAX for 180 seconds, allowed to dissociate for 240 seconds and regenerated. Reference surface (without MAXbHLHZip) subtracted sensorgrams are shown from one representative experiment. C) MYC binding response units (RU) plotted against Example 1 concentration from which an IC50 of Example 1 inhibition of MYC:MAX heterodimer formation is determined, summary of four experiments.
Assay 1B. Surface Plasmon Resonance (SPR)
The SPR method is a highly sensitive assay to determine the affinity between protein and ligand and to measure the kinetics of the interaction (see Handbook of Surface Plasmon Resonance 2nd edition, Richard B M Schasfoort (Editor), RSC 2017, ca. 500 p., hardcover, ISBN 978-1-78262-730-2). […]

[2] = tested on: Tgr and H0Myc3 Rat1 fibroblast cells; assay: Assay 5B Tgr cell growth (WST-1), MYC expressing; type: cell-based, rat; conditions: 48 hours
Experimental: FIG. 6: A-B) Neuroblastoma cell lines with (SK-N-DZ, Kelly and IMR-32) or without (SK-N-F1, SK-N-RA and SK-N-AS) MYCN-amplification were exposed to different concentrations of Example 1, Example 2 and control compound, respectively, for 48 hours. Cell growth and viability was estimated by measuring metabolic activity. C) Growth of TGR-1 (wt), HO15.19 (MYC knockout) and HOmyc3 (MYC reconstituted HO15.19) Rat1 fibroblasts, as measured by the WST-1 assay after treatment with Example 1. Data are shown as mean±standard deviation of 3-5 biological experiments, each with 3 technical repeats.
Assay 5B: Tgr Cell Growth
Tgr cells were treated at 37° C. and 5% CO2 at 48 hours with Example and Example 2. H015.19 is a MYC null rat cell line derived from Tgr1 (parental cells), while H0Myc3 cells were generated from the MYC null cells by reconstitution of a MYC gene(Mateyak, M. K., Obaya, A. J., Adachi, S. & Sedivy, J. M. Phenotypes of c-Myc-deficient rat fibroblasts isolated by targeted homologous recombination. Cell Growth Differ 8, 1039-1048 (1997)).

T2 sequence (P01106 368-449 limits assumed, one chain of several): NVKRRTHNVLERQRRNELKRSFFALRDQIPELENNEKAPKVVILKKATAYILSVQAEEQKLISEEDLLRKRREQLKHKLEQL
T1 sequence (P61244 22-102): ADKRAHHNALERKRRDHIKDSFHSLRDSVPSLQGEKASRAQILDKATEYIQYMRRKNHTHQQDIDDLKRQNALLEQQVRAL

For CCOc1ccc2nc3cc(/N=N/c4ccc(N)nc4N)ccc3c(N)c2c1 [Example 1, 3-((9-amino-7-ethoxyacridin-3-yl)diazenyl)pyridine-2,6-diamine sulphate hydrate], the “Effect on thermophoresis (MAX protein concentration)” value (MAX bHLHZip) was greater than 15 µM, the IC50 [1] was 3.8 µM and the “growth of wt and reconstituted cells” value [2] was “strongly inhibited”. It also gave a GI50 ([2]; Rattus norvegicus, Fibroblast, first run) of 4 µM.
